In data set [1] the target is T1, glutathione S-transferase pi isoform-1 (GSTP1) (Homo sapiens, UniProt P09211).
T1 construct: purchased Fitzgerald Industries International
Briefly: Taylor dispersion (OneStep) SPR, equilibrium analysis of flavonoids on immobilized GSTP1. Particulars: GSTP1, one binding site, 1:1 equilibrium analysis model, 25 °C. As for the experimental part:
(§1) Hydroxyl-gel modified sensor chips and coupling reagents for the Pioneer SPR instrument (SensiQ Technologies, Oklahoma City, OK, USA) were obtained from Xantec (Duesseldorf, Germany). […] All analyses were performed at 25 °C. 10 mM HEPES (pH 7.4) with 150 mM NaCl, 0.005% Tween-20, 1.26 mM EDTA, and 5% DMSO was used as the running buffer.
(§2) HSA (essentially fatty acid free; Sigma Aldrich, St. Louis, MO, USA) and GSTP1 (Fitzgerald Industries International, North Acton, MA, USA) (50 μg/mL in 10 mM sodium acetate, pH 5.0) were immobilized on polycarboxylate hydrogel sensor chip surfaces using a standard amine-coupling protocol (flow rate of 10 μL/min) to obtain a density of 10–12 kRU [18]. Each of the four flavonoids was dissolved in DMSO to achieve a high concentration, then further diluted to a final 5% DMSO concentration in running buffer. Typically, the flavonoid concentration series spanned 0.01–500 μM. Five blanks were analyzed at the beginning of the analysis, and the remaining blanks were randomly injected throughout the analysis for double-referencing purposes.
(§3) In this study, we explored the SensiQ Pioneer’s dynamic SPR capability (also known as the OneStep® injection method), which is essentially a Taylor dispersion to create a gradient injection to quantify biomolecular interactions. In the Taylor dispersion method, analyte concentration is initially uniform, but it gradually changes into a sigmoidal gradient due to the combined actions of analyte diffusion and convective laminar flow within the dispersion capillary. This method saves sample preparation time, lessens the need for limited-supply sample materials, and eliminates possible human errors in the preparation of sample dilutions. Since the compounds are screened over a broader dilution range, content-rich data can be obtained from the preliminary screening step itself, and oftentimes, secondary screening can be avoided. A Taylor dispersion gradient injection of sucrose (3% w/v in running buffer) was performed in parallel as a diffusion standard to account for experimental deviations such as buffer viscosity, flow rate, temperature, etc. The analytes were injected in running buffer using the same Taylor diffusion gradient injection mode with a flow rate of 25 μL/min.
SPR response data (sensorgrams) were zeroed at the beginning of each injection and double referenced. For kinetic analyses, the responses were plotted against the analyte concentration and fit to a 1:1 (A + B = AB) or 1:2 (A + 2B = AB1 + AB2) binding model using Qdat analysis software (SensiQ Technologies, Inc., Oklahoma City, OK, USA) and GraphPad Prism 5.04 (GraphPad Software Inc., La Jolla, CA, USA). […]

For data set [2], the target named is T2, human serum albumin (HSA) (Homo sapiens, UniProt P02768).
T2 construct: purchased Sigma Aldrich
T2 sequence (P02768 25-609): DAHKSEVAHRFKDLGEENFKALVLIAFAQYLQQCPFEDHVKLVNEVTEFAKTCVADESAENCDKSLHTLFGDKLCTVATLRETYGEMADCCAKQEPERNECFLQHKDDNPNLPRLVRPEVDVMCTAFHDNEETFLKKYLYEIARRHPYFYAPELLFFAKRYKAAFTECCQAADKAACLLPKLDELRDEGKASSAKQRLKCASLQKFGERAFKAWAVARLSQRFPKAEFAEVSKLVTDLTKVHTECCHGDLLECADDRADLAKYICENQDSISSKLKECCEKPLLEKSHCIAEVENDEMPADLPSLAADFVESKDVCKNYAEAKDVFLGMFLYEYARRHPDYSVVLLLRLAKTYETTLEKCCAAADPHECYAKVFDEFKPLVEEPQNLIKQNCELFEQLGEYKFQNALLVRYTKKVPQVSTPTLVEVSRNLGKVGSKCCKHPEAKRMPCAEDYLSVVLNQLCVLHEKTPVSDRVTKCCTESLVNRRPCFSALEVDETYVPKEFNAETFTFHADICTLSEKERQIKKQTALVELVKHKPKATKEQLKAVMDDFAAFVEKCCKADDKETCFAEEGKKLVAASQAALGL
Briefly: Taylor dispersion (OneStep) SPR, kinetic analysis of flavonoids on immobilized HSA. Particulars: for kon / koff: pH 7.4, HSA. Type of data set: binding. As for the experimental part: as §1, §2, §3
SPR response data (sensorgrams) were zeroed at the beginning of each injection and double referenced. For kinetic analyses, the responses were plotted against the analyte concentration and fit to a 1:1 (A + B = AB) or 1:2 (A + 2B = AB1 + AB2) binding model using Qdat analysis software (SensiQ Technologies, Inc., Oklahoma City, OK, USA) and GraphPad Prism 5.04 (GraphPad Software Inc., La Jolla, CA, USA).

Data set [3] addresses T2, human serum albumin (HSA). Briefly: Conventional (standard fixed-concentration injection) SPR, HSA-quercetin validation. Type of data set: binding. On the procedure: as §1, §2
For assay validation, a conventional SPR method was used as a comparison. The interaction of HSA with quercetin was chosen for validation. For the conventional SPR method, analyte dilutions were prepared manually in a twofold dilution series starting with 500 μM as the highest concentration. […]

The mark [4] stands for this setting: HSA, Site 1, 25 °C, OneStep SPR, global kinetic fit (1:2 model; kaempferol 1:1), read-out: KD (equilibrium dissociation constant), Site 1.
Where [5] appears, read: human, Site 1, 25 °C, OneStep SPR, global kinetic fit (1:2 model; kaempferol 1:1), read-out: ka (association rate constant), Site 1.
Setting [6] is: human, Site 1, 25 °C, OneStep SPR, global kinetic fit (1:2 model; kaempferol 1:1), read-out: kd (dissociation rate constant), Site 1.
Setting [7] is: human, Site 2, 25 °C, OneStep SPR, 1:2 model, read-out: ka (association rate constant), Site 2.
Where [8] appears, read: human, Site 2, 25 °C, OneStep SPR, 1:2 model, read-out: kd (dissociation rate constant), Site 2.

Values joined by “and” are separate entries in the source; they are usually repeats but may differ in a detail not shown here. Identical values can stand only once. Like-named read-outs stand apart in the source and are kept apart here.

T1 sequence (P09211 whole entry, canonical isoform): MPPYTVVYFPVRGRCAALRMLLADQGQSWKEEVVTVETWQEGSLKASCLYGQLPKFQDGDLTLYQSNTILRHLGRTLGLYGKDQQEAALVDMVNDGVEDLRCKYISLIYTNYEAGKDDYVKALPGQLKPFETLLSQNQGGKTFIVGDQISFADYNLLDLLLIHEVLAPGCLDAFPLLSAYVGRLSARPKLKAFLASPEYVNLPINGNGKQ

For the compound `O=c1c(O)c(-c2ccc(O)cc2)oc2cc(O)cc(O)c12` [Kaempferol, kaempferol], the Kd amounted to 45 ± 0.2 µM in data set [1] and 0.037 µM in data set [2] (setting [4]). In addition, the kon in data set [2] (setting [5]) amounted to 48400 ± 6e+06 M⁻¹ s⁻¹. The koff in data set [2] (setting [6]) was determined as 0.002 ± 0.002 s⁻¹.
In the case of `O=c1cc(-c2ccc(O)c(O)c2)oc2cc(O)cc(O)c12` [Luteolin, luteolin], the Kd turned out to be 31.5 ± 0.2 µM in data set [1]; 63.4 µM in data set [2] (setting [4]); 406 µM in data set [2] (human, pH 7.4). Besides, the kon in data set [2] (setting [5]) turned out to be 3200 ± 300000 M⁻¹ s⁻¹; in data set [2] (setting [7]) it was 17.1 ± 1 M⁻¹ s⁻¹. Moreover, the koff was found to be 0.205 ± 0.005 s⁻¹ in data set [2] (setting [6]) and 0.007 ± 0.001 s⁻¹ in data set [2] (setting [8]).
Take `O=c1c(O)c(-c2ccc(O)c(O)c2)oc2cc(O)cc(O)c12` [Quercetin, quercetin]: the Kd is ~27.5 µM and 27.5 µM in data set [1]; 0.063 µM in data set [2] (setting [4]); over 500 µM in data set [2] (human, pH 7.4); 68 ± 2 nM in data set [3] (HSA, conventional SPR, two fold dilution series from 500 μM, quadruplicate, 1:2 model, read-out: KD1 (affinity towards HSA)); over 500000 nM in data set [3] (human, pH 7.4). Besides, the kon in data set [2] (setting [5]) was found to be 240000 ± 1e+08 M⁻¹ s⁻¹; in data set [2] (setting [7]), 100 ± 1000 M⁻¹ s⁻¹. Also, the koff in data set [2] (setting [6]) amounted to 0.016 ± 0.003 s⁻¹; in data set [2] (setting [8]), 0.405 ± 0.004 s⁻¹.
With `Oc1ccc(/C=C/c2cc(O)cc(O)c2)cc1` [Resveratrol, resveratrol], the Kd worked out at 78 ± 0.1 µM in data set [1]; 0.4 µM in data set [2] (setting [4]); 180 µM in data set [2] (human, pH 7.4). For the same compound, the kon was found to be 7000 ± 200000 M⁻¹ s⁻¹ in data set [2] (setting [5]) and 2900 ± 600000 M⁻¹ s⁻¹ in data set [2] (setting [7]). Moreover, the koff in data set [2] (setting [6]) was determined as 0.003 ± 0.002 s⁻¹; in data set [2] (setting [8]) it was 0.52 ± 0.003 s⁻¹.
